Test results taken from ChEMBL document CHEMBL5727660, “Compounds for the treatment of pain” (2020).

Target: Mu-type opioid receptor (Homo sapiens, UniProt P35372)
Assay: Competitive Displacement Assay: Membrane protein from CHO (Chinese Hamster Ovarian) cells that stably expressed one type of the cloned human opioid receptor were incubated with 12 different concentrations of the compound in the presence of 0.25 nM [3H]DAMGO, 0.2 nM [3H]naltrindole or 1 nM [3H]U69,593 in a final volume of 1 mL of 50 mM Tris-HCl, pH 7.5 at 25° C. Incubation times of 60 min were used for [3H]DAMGO and [3H]U69,593. Because of a slower association of [3H]naltrindole with the receptor, a 3 h incubation was used with this radioligand. Samples incubated with [3H]naltrindole also contained 10 mM MgCl2 and 0.5 mM phenylmethylsulfonyl fluoride. Nonspecific binding was measured by inclusion of 10 μM naloxone. The binding was terminated by filtering the samples through Schleicher & Schuell No. 32 glass fiber filters using a Brandel 48-well cell harvester. The filters were subsequently washed three times with 3 mL of cold 50 mM Tris-HCl, pH 7.5, and were counted in 2 mL Ecoscint A scintillation fluid. For [3H]naltrindole and [3H]U69,593 binding, the filters were soaked in 0.1% polyethylenimine for at least 60 min before use.

Sequence of Mu-type opioid receptor (P35372 whole entry): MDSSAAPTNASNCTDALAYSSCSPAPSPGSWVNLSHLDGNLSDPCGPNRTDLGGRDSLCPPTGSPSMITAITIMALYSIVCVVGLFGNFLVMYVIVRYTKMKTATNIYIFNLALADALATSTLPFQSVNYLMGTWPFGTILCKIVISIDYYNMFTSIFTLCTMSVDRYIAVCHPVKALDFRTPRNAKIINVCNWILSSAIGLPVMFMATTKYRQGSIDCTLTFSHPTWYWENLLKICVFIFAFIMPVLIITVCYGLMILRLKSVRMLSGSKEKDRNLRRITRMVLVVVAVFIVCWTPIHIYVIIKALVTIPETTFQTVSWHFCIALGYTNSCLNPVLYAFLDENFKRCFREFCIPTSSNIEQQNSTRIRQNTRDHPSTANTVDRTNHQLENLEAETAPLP

Question: For `COC1(c2ccnc(C(N)=O)c2)C2CCCC1CN(Cc1cc3ccccc3[nH]1)C2` (stereo unspecified), which Ki is on record?
Answer: Its Ki is < 1 nM.
